Here are results for four molecules from ChEMBL document CHEMBL1201862, “PubChem BioAssay data set” (2004).

One test deals with Cysteine protease ATG4B (Homo sapiens, UniProt Q9Y4P1). Type of test: functional.
Another test concerns the target T1, Aminopeptidase N (Plasmodium falciparum FcB1/Columbia, UniProt O96935).
T1 sequence (O96935 whole entry): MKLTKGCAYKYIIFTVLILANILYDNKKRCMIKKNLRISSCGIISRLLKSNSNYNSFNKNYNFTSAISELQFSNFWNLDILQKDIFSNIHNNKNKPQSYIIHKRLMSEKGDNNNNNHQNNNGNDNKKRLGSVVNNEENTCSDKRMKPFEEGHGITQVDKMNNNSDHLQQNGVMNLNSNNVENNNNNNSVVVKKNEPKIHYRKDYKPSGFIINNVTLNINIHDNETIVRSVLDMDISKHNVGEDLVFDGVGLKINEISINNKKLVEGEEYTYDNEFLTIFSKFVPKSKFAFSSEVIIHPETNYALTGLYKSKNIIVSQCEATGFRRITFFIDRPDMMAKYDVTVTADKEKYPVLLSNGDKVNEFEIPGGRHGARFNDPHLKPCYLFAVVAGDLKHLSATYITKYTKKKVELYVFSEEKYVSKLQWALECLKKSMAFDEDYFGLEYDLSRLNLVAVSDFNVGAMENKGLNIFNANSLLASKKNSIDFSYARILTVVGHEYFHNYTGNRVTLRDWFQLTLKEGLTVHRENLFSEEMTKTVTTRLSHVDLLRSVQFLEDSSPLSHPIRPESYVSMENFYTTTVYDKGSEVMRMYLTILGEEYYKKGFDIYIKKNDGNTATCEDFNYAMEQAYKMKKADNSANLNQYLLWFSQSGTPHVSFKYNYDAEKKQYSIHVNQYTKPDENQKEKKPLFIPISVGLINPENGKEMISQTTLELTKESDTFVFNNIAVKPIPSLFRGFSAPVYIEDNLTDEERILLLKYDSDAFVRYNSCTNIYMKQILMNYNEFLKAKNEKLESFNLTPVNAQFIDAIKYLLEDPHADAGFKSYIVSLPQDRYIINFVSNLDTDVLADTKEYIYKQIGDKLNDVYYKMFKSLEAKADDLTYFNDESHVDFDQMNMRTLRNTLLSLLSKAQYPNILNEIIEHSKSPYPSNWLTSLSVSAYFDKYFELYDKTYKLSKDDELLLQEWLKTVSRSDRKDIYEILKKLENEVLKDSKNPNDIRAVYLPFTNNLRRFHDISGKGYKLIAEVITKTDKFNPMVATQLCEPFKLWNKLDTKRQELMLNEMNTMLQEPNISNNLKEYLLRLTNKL
Briefly: P. falciparum M1AAP inhibitors, biochemical, fluorogenic H-Leu-NHMec substrate, 1536-well (AID 1445). Further details: species or system Plasmodium falciparum 3D7, 3D7.

The next test concerns the target Phospholipase A2 (Homo sapiens, UniProt P04054). The test is classed as functional.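 Also: confirmatory dose-response counterscreen on phospholipase A2, testing hits that came from an ultra-high-throughput screen for ATG4B inhibitors.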
The target of the next test is T2, Hexokinase HKDC1 (Homo sapiens, UniProt Q2TB90).
T2 sequence (Q2TB90 whole entry): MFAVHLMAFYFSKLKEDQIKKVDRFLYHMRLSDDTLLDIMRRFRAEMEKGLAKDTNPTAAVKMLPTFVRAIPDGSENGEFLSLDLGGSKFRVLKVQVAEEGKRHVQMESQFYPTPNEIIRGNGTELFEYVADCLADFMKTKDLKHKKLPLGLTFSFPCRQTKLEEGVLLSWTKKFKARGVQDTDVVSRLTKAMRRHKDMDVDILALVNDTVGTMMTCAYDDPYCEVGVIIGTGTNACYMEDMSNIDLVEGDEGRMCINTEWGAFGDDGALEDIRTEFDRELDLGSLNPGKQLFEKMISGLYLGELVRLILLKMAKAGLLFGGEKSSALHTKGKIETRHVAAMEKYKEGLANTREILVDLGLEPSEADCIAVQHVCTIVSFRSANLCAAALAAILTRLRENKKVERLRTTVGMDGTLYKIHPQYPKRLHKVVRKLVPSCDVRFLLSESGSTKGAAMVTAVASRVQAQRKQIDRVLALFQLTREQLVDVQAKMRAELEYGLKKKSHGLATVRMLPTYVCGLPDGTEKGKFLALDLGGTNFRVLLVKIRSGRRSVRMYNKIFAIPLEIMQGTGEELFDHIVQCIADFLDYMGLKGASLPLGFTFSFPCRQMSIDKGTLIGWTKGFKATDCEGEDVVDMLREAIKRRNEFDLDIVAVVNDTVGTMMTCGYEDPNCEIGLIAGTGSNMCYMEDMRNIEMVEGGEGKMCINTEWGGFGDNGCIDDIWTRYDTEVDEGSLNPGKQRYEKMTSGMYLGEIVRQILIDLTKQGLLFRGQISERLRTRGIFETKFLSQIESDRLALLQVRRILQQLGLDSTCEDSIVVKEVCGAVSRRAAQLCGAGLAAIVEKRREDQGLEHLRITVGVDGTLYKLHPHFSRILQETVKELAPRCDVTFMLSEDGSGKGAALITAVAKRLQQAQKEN
Briefly: SAR analysis of small molecule inhibitors of hexokinase domain containing I (HKDC1). [Related pubchem assays (depositor defined):AID493160, AID493190]. Type of test: functional.

A further test has as its target T3, Hexokinase-1 (Homo sapiens, UniProt P19367).
T3 sequence (P19367 whole entry): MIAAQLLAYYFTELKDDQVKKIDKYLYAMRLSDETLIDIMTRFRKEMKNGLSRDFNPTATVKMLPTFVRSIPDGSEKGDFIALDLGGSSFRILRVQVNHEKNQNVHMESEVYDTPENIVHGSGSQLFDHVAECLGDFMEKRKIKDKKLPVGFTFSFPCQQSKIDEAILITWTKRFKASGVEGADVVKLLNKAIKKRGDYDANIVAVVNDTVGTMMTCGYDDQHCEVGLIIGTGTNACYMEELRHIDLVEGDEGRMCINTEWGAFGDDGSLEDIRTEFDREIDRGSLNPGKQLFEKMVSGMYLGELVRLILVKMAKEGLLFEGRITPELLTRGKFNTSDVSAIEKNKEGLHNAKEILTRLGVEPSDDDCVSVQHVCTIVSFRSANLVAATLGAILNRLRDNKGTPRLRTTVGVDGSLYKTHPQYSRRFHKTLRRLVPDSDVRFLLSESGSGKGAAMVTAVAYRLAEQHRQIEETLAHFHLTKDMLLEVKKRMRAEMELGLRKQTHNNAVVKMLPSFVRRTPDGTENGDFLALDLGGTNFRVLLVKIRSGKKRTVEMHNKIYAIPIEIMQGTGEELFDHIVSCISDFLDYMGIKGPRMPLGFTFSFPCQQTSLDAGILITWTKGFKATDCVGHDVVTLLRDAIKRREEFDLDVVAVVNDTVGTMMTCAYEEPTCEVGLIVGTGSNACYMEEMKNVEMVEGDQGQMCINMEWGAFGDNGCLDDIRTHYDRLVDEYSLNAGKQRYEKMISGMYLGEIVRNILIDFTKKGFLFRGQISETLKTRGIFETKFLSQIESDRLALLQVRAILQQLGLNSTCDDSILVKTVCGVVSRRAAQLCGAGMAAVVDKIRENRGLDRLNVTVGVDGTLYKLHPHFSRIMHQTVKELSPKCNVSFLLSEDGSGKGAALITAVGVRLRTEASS
Briefly: SAR analysis of small molecule inhibitors of hexokinase domain containing I (HKDC1) in the hexokinase 1 selectivity assay. [Related pubchem assays (depositor defined):AID493160, AID493190]. Type of test: functional.

Test [1] has as its target T4, Sentrin-specific protease 7 (Homo sapiens, UniProt Q9BQF6).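 Also: Luminescence-based dose-response confirmation of ultra-high-throughput screening hits, measuring inhibition of SENP7.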
T4 sequence (Q9BQF6 whole entry): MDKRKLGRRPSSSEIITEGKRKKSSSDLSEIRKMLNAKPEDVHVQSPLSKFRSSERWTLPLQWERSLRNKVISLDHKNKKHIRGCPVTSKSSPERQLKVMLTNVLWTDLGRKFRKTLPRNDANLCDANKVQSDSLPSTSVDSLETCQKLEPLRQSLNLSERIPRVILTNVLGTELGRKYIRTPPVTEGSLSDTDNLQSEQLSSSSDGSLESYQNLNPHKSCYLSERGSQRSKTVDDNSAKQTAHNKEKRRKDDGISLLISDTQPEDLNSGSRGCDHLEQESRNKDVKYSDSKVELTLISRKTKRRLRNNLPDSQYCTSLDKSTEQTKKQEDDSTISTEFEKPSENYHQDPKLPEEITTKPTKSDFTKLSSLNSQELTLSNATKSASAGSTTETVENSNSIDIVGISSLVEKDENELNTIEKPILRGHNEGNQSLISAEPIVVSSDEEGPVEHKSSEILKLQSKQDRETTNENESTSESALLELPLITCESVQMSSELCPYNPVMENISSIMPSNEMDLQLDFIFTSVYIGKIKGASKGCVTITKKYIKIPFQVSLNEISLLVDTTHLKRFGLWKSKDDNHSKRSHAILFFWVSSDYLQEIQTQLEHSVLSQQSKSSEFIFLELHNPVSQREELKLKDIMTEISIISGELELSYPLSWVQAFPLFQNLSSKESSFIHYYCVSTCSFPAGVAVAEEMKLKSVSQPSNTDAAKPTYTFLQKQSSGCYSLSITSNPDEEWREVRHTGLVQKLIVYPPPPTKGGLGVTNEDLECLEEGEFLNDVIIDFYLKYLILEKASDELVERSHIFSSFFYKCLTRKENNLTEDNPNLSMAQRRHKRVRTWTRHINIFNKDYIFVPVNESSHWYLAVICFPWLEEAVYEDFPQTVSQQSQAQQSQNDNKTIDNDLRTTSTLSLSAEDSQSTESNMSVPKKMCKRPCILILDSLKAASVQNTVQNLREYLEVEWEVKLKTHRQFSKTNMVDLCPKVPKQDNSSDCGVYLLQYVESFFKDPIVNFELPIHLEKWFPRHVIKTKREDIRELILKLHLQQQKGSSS
The test is classed as functional.

Test [2] has as its target T5, Sentrin-specific protease 8 (Homo sapiens, UniProt Q96LD8).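 Also: luminescence read-out of SENP8 inhibition, dose-response confirmation following an ultra-high-throughput screen.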
T5 sequence (Q96LD8 whole entry): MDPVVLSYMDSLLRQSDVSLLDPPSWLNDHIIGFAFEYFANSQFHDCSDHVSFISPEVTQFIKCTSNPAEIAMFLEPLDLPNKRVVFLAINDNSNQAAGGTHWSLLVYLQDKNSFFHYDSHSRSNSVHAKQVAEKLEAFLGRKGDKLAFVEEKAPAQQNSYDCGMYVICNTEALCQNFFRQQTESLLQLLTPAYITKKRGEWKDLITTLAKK
The test is classed as functional.

Test [3] concerns the target T6, Sentrin-specific protease 6 (Homo sapiens, UniProt Q9GZR1).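 Also: Luminescence-based dose-response confirmatory assay of SENP6 inhibition, following up an ultra-high-throughput screen.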
T6 sequence (Q9GZR1 whole entry): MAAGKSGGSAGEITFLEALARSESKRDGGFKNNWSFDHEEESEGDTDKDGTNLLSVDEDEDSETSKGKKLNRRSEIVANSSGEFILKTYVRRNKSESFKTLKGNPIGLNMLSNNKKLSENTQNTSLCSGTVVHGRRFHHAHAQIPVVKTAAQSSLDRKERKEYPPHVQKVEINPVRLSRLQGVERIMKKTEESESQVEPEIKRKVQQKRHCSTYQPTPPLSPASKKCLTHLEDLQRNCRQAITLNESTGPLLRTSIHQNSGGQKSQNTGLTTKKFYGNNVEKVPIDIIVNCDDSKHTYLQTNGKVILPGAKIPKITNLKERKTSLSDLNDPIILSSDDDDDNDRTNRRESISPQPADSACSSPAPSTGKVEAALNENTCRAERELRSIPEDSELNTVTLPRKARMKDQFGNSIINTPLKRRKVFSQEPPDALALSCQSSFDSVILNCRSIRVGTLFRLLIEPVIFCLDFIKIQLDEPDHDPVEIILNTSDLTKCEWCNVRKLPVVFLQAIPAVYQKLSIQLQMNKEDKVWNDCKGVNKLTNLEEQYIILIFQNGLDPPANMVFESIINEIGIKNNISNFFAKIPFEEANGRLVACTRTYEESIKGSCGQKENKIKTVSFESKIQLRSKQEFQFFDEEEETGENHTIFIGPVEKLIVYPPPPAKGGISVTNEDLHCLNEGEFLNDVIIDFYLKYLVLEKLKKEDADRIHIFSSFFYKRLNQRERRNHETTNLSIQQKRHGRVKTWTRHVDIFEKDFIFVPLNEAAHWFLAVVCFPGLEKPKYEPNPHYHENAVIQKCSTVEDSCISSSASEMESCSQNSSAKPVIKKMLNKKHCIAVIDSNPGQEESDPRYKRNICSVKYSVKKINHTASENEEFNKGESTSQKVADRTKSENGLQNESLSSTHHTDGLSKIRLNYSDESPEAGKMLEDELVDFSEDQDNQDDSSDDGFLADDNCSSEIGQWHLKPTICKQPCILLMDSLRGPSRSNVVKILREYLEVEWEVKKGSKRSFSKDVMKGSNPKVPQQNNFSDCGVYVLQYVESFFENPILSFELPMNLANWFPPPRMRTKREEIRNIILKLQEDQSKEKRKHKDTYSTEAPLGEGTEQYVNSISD
The test is classed as functional.

Another test has as its target T7, Caspase-3 (Homo sapiens, UniProt P42574).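 Also: Dose-response selectivity test against caspase-3 for candidate inhibitors of sentrin-specific proteases (SENPs).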
T7 sequence (P42574 whole entry): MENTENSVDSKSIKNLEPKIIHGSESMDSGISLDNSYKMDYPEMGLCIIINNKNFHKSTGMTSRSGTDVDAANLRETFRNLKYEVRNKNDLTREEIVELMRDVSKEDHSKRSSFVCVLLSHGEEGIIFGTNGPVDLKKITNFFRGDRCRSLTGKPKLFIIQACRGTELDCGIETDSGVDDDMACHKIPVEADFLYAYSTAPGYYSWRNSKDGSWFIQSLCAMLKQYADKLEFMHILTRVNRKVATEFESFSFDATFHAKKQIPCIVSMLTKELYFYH
The test is classed as functional.

The target of test [4] is FAD-linked sulfhydryl oxidase ALR (Homo sapiens, UniProt P55789). Briefly: inhibitors of human ALR sulfhydryl oxidase, dose response, biochemical, H2O2 detection, luminescence, cherry-pick (AID 493248).
Sequence of FAD-linked sulfhydryl oxidase ALR (P55789 whole entry): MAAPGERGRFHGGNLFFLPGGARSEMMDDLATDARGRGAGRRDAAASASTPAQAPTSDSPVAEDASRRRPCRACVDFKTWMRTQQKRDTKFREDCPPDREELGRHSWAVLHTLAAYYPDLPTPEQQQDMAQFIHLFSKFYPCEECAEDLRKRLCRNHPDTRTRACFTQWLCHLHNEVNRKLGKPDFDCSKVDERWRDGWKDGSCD

Activity calls are given as the source filed them.

Sequence of Phospholipase A2 (P04054 whole entry): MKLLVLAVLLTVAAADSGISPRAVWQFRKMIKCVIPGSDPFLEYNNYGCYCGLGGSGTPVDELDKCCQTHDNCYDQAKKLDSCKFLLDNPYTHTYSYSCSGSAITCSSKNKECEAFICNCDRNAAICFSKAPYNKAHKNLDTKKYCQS
Sequence of Cysteine protease ATG4B (Q9Y4P1 whole entry): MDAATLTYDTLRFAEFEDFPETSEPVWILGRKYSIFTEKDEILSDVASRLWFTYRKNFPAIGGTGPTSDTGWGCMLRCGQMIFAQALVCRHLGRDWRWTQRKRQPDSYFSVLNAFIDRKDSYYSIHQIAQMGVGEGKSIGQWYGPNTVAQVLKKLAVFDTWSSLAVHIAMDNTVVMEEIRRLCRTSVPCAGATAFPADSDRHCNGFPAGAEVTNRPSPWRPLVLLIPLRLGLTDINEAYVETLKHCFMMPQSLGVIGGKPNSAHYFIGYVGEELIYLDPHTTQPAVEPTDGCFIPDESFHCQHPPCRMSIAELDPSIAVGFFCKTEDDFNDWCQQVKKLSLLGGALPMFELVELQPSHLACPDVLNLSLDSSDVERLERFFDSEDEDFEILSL

The IC50 is the concentration needed to halve the response being measured. For `COc1cc(/C=C/C(=O)O)cc(S(=O)(=O)Nc2cc(Cl)c(Cl)cc2Cl)c1OC`, the IC50 is 6.7 µM (active) at Cysteine protease ATG4B, 94.2 µM (active) at Aminopeptidase N and 34.1 µM (inactive) at Phospholipase A2.

On to `O=c1c2ccccc2nc(/C=C/c2ccc(Br)cc2)n1Cc1ccccc1`, for which the IC50 on Hexokinase HKDC1 and on Hexokinase-1 was > 80 µM (inactive) each time.

Usually AC50 stands for the concentration at which the activity in the assay is half-maximal. As for `C/C(=N/O)c1ccc2ccc3ccccc3c2c1`, the IC50 was 9.17 µM (active) in [1], 21.6 µM (active) in [2], 16.7 µM (active) in test [3] and 38 µM (active) at Caspase-3. Also, the AC50 in test [4] is 5.54 µM (active).

As to `Cc1ccc(C(=O)Nc2nnc(SCc3ccc(C#N)cc3)s2)cc1`, the IC50 on Hexokinase HKDC1 and on Hexokinase-1 was > 80 µM (inactive) each time.
